Laboratory results: patent US10894042B2, “Methods and pharmaceutical compositions for the treatment of cancer” (INSERM (INSTITUT NATIONAL DE LA SANTÉ ET DE LA RECHERCHE …, priority 2014, dated 2021)
Where no end group is shown, it is not given here.

What was measured:
[1] = target: T1, OX1R (Homo sapiens, UniProt O43613); assay: Ca2+ mobilization assay in HEK-OX1R cells (FluoForte); assay type: cell-based
T1 construct: HEK cells expressing recombinant native OX1R (HEK-OX1R) cells were seeded in 96-wells plate; expressed in transfected cells; host or cells: HEK cells (HEK-OX1R)
T1 sequence (O43613 1-425): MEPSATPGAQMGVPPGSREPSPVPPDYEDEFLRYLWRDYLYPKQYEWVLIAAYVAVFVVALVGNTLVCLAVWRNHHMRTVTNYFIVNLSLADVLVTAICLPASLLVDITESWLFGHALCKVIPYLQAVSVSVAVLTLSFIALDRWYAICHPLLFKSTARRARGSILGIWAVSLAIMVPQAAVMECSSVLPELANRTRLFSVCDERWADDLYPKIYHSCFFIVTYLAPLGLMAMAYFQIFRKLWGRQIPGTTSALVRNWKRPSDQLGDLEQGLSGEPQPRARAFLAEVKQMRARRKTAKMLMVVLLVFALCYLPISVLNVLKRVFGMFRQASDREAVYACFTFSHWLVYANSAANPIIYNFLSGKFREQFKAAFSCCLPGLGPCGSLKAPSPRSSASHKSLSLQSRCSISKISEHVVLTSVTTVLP
Procedure: FIG. 1: Effect of orexin-A and SB408124 antagonist on Ca2+ mobilization in HEK-OX1R cells. Top, HEK-OX1R cells were incubated with fluorescence probe (FluoForte) for 45 min. at 37° C. according to FluoForte calcium assay kit (Enzo Life Sciences). 1 μM of OxA was added to cells and fluorescence emission was measured on TECAN Infinite 200 fluorospectrophotometer. Bottom, HEK-OX1R cells were incubated with fluorescence probe (FluoForte) for 45 min. at 37° C. and then incubated with 1 μM of SB408124 for 1 h at 37° C. After pre-incubation, 1 μM of OxA was added to cells and fluorescence emission was measured.
HEK cells expressing recombinant native OX1R (HEK-OX1R) cells were seeded in 96-wells plate, grown and maintained at 37° C. in a humidified 5% CO2/air incubator. 80,000 cells/well were incubated with FluoForte probe according to FluoForte calcium assay kit (ENZO life Sciences, Farmingdale, N.Y., USA) for 45 min. at 37° C. and then incubated with or without 1 μM of SB408124 antagonist for 1 h at 37° C. After pre-incubation, 1 μM of OxA was added and fluorescence was determined using TECAN Infinite 200 fluorospectrophotometer.

[2] = test system: HEK-OX1R cells; assay: Cell growth determination, HEK-OX1R cells; assay type: cell-based; conditions: 48 hr incubation, viable cells counted, OxA 0.1 μM, SB408124 increasing concentrations
Procedure: (§1) FIG. 2: Determination of the inhibition of cellular growth of HEK-OX1R cells and colon adenocarcinoma cells (HT-29) induced by […] of OxA or various concentrations of SB408124 antagonist. HEK-OX1R cells (black column) and HT-29 cells (white column) were incubated with 0.1 μM of OxA and indicated increasing concentration of SB408124, and cells were counted after 48 hr incubation. Results are expressed as the percentage of total viable cells.
(§2) HEK-OX1R cells or colon adenocarcinoma HT-29 cells were seeded, grown and maintained at 37° C. in a humidified 5% CO2/air incubator. After 24 hr culture, cells were treated with or without Orexin-A peptide or SB408124 antagonist, previously dissolved in DMSO, to be tested at the concentration indicated in the figure legends. After 48 hr of treatment, adherent cells were harvested by TriplE (Life Technologies, Saint Aubin, France) and manually counted. Apoptosis was determined using the Guava PCA system and the Guava nexin kit.

[3] = test system: colon adenocarcinoma HT-29 cells; assay: Cell growth determination, HT-29 cells; assay type: cell-based; conditions: 48 hr incubation, viable cells counted, OxA 0.1 μM, SB408124 increasing concentrations
Procedure: as §1, §2

[4] = test system: OX1R expressing colon adenocarcinoma cells, HT-29; assay: Apoptosis assay (annexin V-PE binding, Guava nexin kit), HT-29 cells; assay type: cell-based; conditions: for apoptosis (annexin V-PE binding): HT-29 cells, 48 h, 1 μM orexin-A or various concentrations of SB408124
Procedure: FIG. 3: Effect of orexin-A and SB408124 antagonist on apoptosis in OX1R expressing colon adenocarcinoma cells, HT-29. HT-29 cells were challenged with 1 μM orexin-A or various concentration of SB408124 for 48 h. Apoptosis was measured by determination of annexin V-PE binding, and results are expressed as the percentage of apoptotic cells. Results are means±SE of three experiments. ***P<0.001.
as §2

[5] = test system: human colon cancer cells (LoVo cells); assay: Growth of tumors from human colon cancer cell xenografts in nude mice; assay type: in vivo; conditions: for tumor growth versus PBS control mice: LoVo xenograft in nude mice, 100 μg intraperitoneally 2 times/week, 48 days of treatment
Procedure: FIG. 4: Effect of ip inoculation of OxA (▴), Suvorexant (◯) and Almorexant (Δ) on the growth of tumors developed by xenografting human colon cancer cells in nude mice. A. LoVo cells were inoculated in the flank of nude mice at day 0. Mice were injected 2 times/week intraperitoneally with 100 μg of OxA, Suvorexant or Almorexant in 100 μl solutions or with 100 μl of PBS (●) for controls. After 48 days of treatment, mice were sacrificed and tumor volume and weight were then recorded. The development of tumors was followed by caliper measurement. B. treatment (2 injections/week) with various doses of Almorexant (1 mg/kg (□), 2.5 mg/kg (Δ) or 5 mg/kg (◯)) compared to OxA treatment (5 mg/kg, ▴). Control was performed by injection of 100 μl PBS (●).
The inventors investigated the effect of intraperitoneal inoculation of OxA, Suvorexant and Almorexant on the growth of tumors developed by xenografting human colon cancer cells (LoVo cells) in nude mice.

| Compound | agonist/antagonist character for OX1R-mediated calcium mobilization [1] | effect on OxA-induced Ca2+ mobilization ([1]; preincubation with 1 μM SB408124 for 1 h at 37° C., then 1 μM OxA) | inhibition of cellular growth [2] | inhibition of cellular growth [3] | apoptosis (annexin V-PE binding) [4] | agonist/antagonist character for OX1R-mediated mitochondrial apoptosis ([4]; colon cancer cell line) | tumor growth versus PBS control mice [5] | tumor growth inhibition, dose dependence ([5]; LoVo xenograft in nude mice, 1, 2.5 or 5 mg/kg, 2 injections/week) | Ca2+ mobilization ([1]; 1 μM OxA, fluorescence (FluoForte)) |
| --- | --- | --- | --- | --- | --- | --- | --- | --- | --- |
| Cc1cc(NC(=O)Nc2ccc(N(C)C)cc2)c2cc(F)cc(F)c2n1 [SB408124] | full antagonist | totally abolished | strong inhibition in a dose-dependent manner | strong inhibition in a dose-dependent manner | induce in a dose-dependent manner cell apoptosis | full agonist |  |  |  |
| CNC(=O)[C@@H](c1ccccc1)N1CCc2cc(OC)c(OC)cc2[C@@H]1CCc1ccc(C(F)(F)F)cc1 [Almorexant] |  |  |  |  |  |  | significantly smaller tumors | induce in a dose-dependent manner tumor growth inhibition |  |
| OxA: orexin A, a 33 amino acid neuropeptide, the natural OX1R agonist (QPLPDCCRQKTCSCRLYELLHGAGNHAAGILTL; ends and bridges not checked; cysteine pairing not given here; UniProt O43612 34-66, looked up) |  |  | strong inhibition | strong inhibition | induced an apoptotic effect |  | significantly smaller tumors |  | large and transient |
| Cc1ccc(-n2nccn2)c(C(=O)N2CCN(c3nc4cc(Cl)ccc4o3)CC[C@H]2C)c1 [Suvorexant] |  |  |  |  |  |  | significantly smaller tumors |  |  |
